Active and inactive are the calls of the source.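 Rule for the calls: active = curve reaches 40% activation over neutral controls at an AC40 no higher than the top valid tested concentration; inconclusive = no clear call, values can overlap the other calls; inactive = signal moving opposite to the expected increase, and the rest.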
System: INS-1E GLuc insulin secretion reporter, luminescence, 2-3 h
Test: activators of glucose-dependent insulin secretion, dose response, cell-based, INS-1E, Gaussia luciferase, luminescence, cherry-pick, set 2 (AID 977607)

Q: `CNc1nc(Sc2ccccc2)cc(C(F)(F)F)n1` was tested. Which AC40 did it give?
A: > 35 µM (inactive)

Q: `O=C(Nc1ccc(C(F)(F)F)cc1)N1[C@@H]2CNC[C@H]1C2c1ccc(/C=C/c2ccccc2)cc1` (some centres undefined) was tested. Which AC40 did it give?
A: 9.53 µM

Q: With `C=CCNc1nc(NCc2ccco2)nc(OCC)n1` as the molecule, how does the AC40 read?
A: > 35 µM (inactive)

Q: Which AC40 does the source give for `COc1ccc(C2=NN(C(=O)CCCC(=O)O)C(c3cccs3)C2)cc1OC` (centres undefined) here?
A: 11.6 µM

Q: How did the AC40 turn out when `CC1CC1C(=O)Nc1cc(C(F)(F)F)ccc1N1CCOCC1` (centres undefined) was run?
A: 1.46 µM

Q: How did the AC40 turn out when `CCn1c(O)c(/C=N/N=C/c2ccc(OC)cc2)c2cc(C3=NNC(=O)CC3)ccc21` was run?
A: 4.21 µM

Q: Which AC40 does the source give for `O=C(Cn1c(COc2ccccc2)nc2ccccc21)Nc1cc(Cl)cc(Cl)c1` here?
A: 10.9 µM

Q: How did the AC40 turn out when `Cn1c(=O)oc2cc(S(=O)(=O)N3CCC(C(=O)Nc4ccc(OC(F)(F)F)cc4)CC3)ccc21` was run?
A: 7.48 µM

Q: Which AC40 does the source give for `Cc1c(C(=O)OCC(=O)N2CC(=O)Nc3ccccc32)oc2ccc(Br)cc12` here?
A: 4.76 µM

Q: With `C/C(Cl)=C/CSc1nc2c(c(=O)[nH]c(=O)n2C)n1C(C)C` as the molecule, how does the AC40 read?
A: 20 µM

Q: With `O=c1[nH]cnc2nc(-c3ccc(N(CCCl)CCCl)cc3)[nH]c12` as the molecule, how does the AC40 read?
A: 5.89 µM

Q: For `CCOc1nc(NC(=O)NS(=O)(=O)c2cccc(Cl)c2)nc(-c2ccccc2)n1`, which AC40 is on record?
A: > 35 µM (inactive)

Q: `CCn1nc(C)c(NC(=O)c2cnn3c(C(F)F)cc(-c4ccccc4)nc23)c1C` was tested. Which AC40 did it give?
A: 3.84 µM

Q: For `COc1ccc(CCNC(=O)CCc2nc3ccccc3[nH]2)cc1OC`, which AC40 is on record?
A: 0.311 µM

Q: For `O=c1[nH]c(/C=C/c2ccc(OC(F)F)cc2)nc2c1cnn2-c1ccccc1`, which AC40 is on record?
A: 21.6 µM

Q: Which AC40 does the source give for `O=C(Nc1nc2ccccc2n1Cc1ccc(Cl)cc1)c1ccco1` here?
A: 7.18 µM

Q: How did the AC40 turn out when `CCOC(=O)Nc1cccc(OCC(=O)Nc2ccc3c(c2)CCC3)c1` was run?
A: 7.83 µM

Q: Which AC40 does the source give for `COc1cc2ccc(CC(=O)O)cc2cc1OC` here?
A: 2.69 µM

Q: How did the AC40 turn out when `COc1ccc(C2=NN(C(=O)c3ccco3)C(c3cccs3)C2)cc1OC` (centres undefined) was run?
A: 1.94 µM

Q: For `OC[C@@H]1[C@@H](c2ccc(C#CC3CCCC3)cc2)[C@@H]2CN(CCC(F)(F)F)CCCCN12`, which AC40 is on record?
A: 6.02 µM

Q: With `COc1ccc2c(c1)C(=NNC(=O)c1ccccn1)c1cc(OC)ccc1-2` as the molecule, how does the AC40 read?
A: 3.1 µM

Q: Which AC40 does the source give for `CCOc1ncccc1C(=O)Nc1ccc(S(=O)(=O)Nc2nc(C)cc(C)n2)cc1` here?
A: 33.2 µM

Q: `COc1ccccc1NC(=O)N1CCCCN2[C@@H](CO)[C@@H](c3ccc(C#CC4CCCC4)cc3)[C@@H]2C1` was tested. Which AC40 did it give?
A: 16.5 µM

Q: `COc1ccc(Cc2nnc(NC(=O)Cc3cccs3)s2)cc1OC` was tested. Which AC40 did it give?
A: 0.234 µM

Q: For `Cc1cccc(S(=O)(=O)N2C[C@@H]3N[C@H](C2)C3c2ccc(-c3ccccc3F)cc2)c1` (some centres undefined), which AC40 is on record?
A: 5.72 µM

Q: `CCCCc1c(-c2ccccc2OC)ncn1Cc1ccccc1C` was tested. Which AC40 did it give?
A: 10.4 µM

Q: With `CCOC(=O)c1ccccc1NC(=O)c1n[nH]c(=O)c2ccccc12` as the molecule, how does the AC40 read?
A: 5.47 µM

Q: How did the AC40 turn out when `Cc1cccc(-c2ccc(C3[C@@H]4CN(C(=O)C5CCCCC5)C[C@H]3N4)cc2)c1` (some centres undefined) was run?
A: 18.5 µM

Q: How did the AC40 turn out when `CCOc1ccc(-n2nnnc2-c2nc3ccccc3s2)cc1` was run?
A: 6.78 µM

Q: How did the AC40 turn out when `Clc1ccc(-c2ccnc(Oc3ccc4ccccc4c3)n2)cc1` was run?
A: 8.45 µM

Q: `CCCCCCn1c(-c2cccs2)n[nH]c1=S` was tested. Which AC40 did it give?
A: > 35 µM (inactive)

Q: For `Fc1ccc(-c2ccc(C3[C@@H]4CN(Cc5cccc(F)c5)C[C@H]3N4)cc2)cc1` (some centres undefined), which AC40 is on record?
A: 5.48 µM

Q: With `O=C(Cn1ncc(Cl)c(Cl)c1=O)Nc1ccc2c(c1)OCO2` as the molecule, how does the AC40 read?
A: 12 µM

Q: Which AC40 does the source give for `Cc1nn(Cc2ccc(Cl)cc2Cl)c(Cl)c1C(=O)Nc1ccc(OC(F)F)cc1` here?
A: 6.5 µM

Q: For `CN(C)CCNC(=O)c1cc2c(s1)-c1ccc(Cl)cc1SC2`, which AC40 is on record?
A: 6.54 µM

Q: How did the AC40 turn out when `CCOc1ccc(CCNC(=O)Cn2ccc3ccccc3c2=O)cc1OCC` was run?
A: > 35 µM (inactive)

Q: How did the AC40 turn out when `CCCCCc1c(Cc2ccccc2)ncn1CCc1ccccc1OC` was run?
A: 12.3 µM

Q: `N#Cc1cccc(-c2ccc(C3[C@H]4CNC[C@@H]3N4Cc3cc(-c4ccccc4)on3)cc2)c1` (some centres undefined) was tested. Which AC40 did it give?
A: 12 µM

Q: With `CN1CCN(C2Cc3ccccc3Sc3cc(C(F)(F)F)ccc32)CC1` (centres undefined) as the molecule, how does the AC40 read?
A: 16 µM

Q: `COc1cccc(-c2cc(C(=O)Nc3cc(C)on3)no2)c1` was tested. Which AC40 did it give?
A: 19.2 µM

Q: `Cc1ccccc1-c1ccc(C2[C@@H]3CN(S(=O)(=O)c4ccccc4C)C[C@H]2N3)cc1` (some centres undefined) was tested. Which AC40 did it give?
A: 9.88 µM

Q: With `Cc1cc(C)c2nc(N(CCCN(C)C)C(=O)c3ccc4c(c3)CCCC4)sc2c1` as the molecule, how does the AC40 read?
A: 6.21 µM

Q: How did the AC40 turn out when `Clc1ccc(/C=N/NC2=Nc3cccc4cccc2c34)cc1` was run?
A: 2.13 µM

Q: `COc1ccc(C2=NN(C(C)=O)C(c3cccs3)C2)cc1OC` (centres undefined) was tested. Which AC40 did it give?
A: 8.92 µM

Q: For `OC(CNCCc1ccc(C(F)(F)F)cc1)COc1cccc2ccccc12` (centres undefined), which AC40 is on record?
A: 4.54 µM

Q: `NC(c1csc(NC(=O)Nc2cccc(C(F)(F)F)c2)n1)C1CCCCC1` (centres undefined) was tested. Which AC40 did it give?
A: 6.13 µM

Q: With `Cc1cccc(-c2ccc(C3[C@@H]4CN(C(=O)Nc5ccc(C(F)(F)F)cc5)C[C@H]3N4)cc2)c1` (some centres undefined) as the molecule, how does the AC40 read?
A: 1.09 µM

Q: Which AC40 does the source give for `Cc1ccc(CC2(OCCN(C)C)CCC(C(C)(C)C)CC2)cc1` (centres undefined) here?
A: 13.9 µM

Q: How did the AC40 turn out when `CN(Cc1c(C(=O)N/N=C/c2ccccc2O)nnn1-c1nonc1N)C1CCCCC1` was run?
A: 9.53 µM

Q: For `Cc1cc(C)cc(NC(=O)Cc2ccc(-n3cccc3)cc2)c1`, which AC40 is on record?
A: 8.29 µM

Q: With `COc1cc2c(cc1OC)-c1cc(Nc3ccc(C)cc3)nc(=O)n1CC2` as the molecule, how does the AC40 read?
A: 11.8 µM

Q: How did the AC40 turn out when `COc1ccc(C2=NN(c3ccc(C(=O)O)cc3)C(c3ccc(OC)c(OC)c3)C2)cc1` (centres undefined) was run?
A: 4.29 µM

Q: For `CCCCNc1cc(Cl)nc(N)n1`, which AC40 is on record?
A: 7.24 µM

Q: How did the AC40 turn out when `O=C(CCn1ccc2cc(S(=O)(=O)N3CCCC3)ccc21)NCc1cccc(F)c1` was run?
A: 9.56 µM

Q: With `Cc1c(CC(=O)O)c(=O)oc2c(C)c(OCc3ccccc3Br)ccc12` as the molecule, how does the AC40 read?
A: > 35 µM (inactive)

Q: `CNC[C@H](CC1CCCCC1)NC[C@H](Cc1ccccc1)NCCC12CC3CC(CC(C3)C1)C2` was tested. Which AC40 did it give?
A: 8.32 µM

Q: For `CN(C)CCCNc1cc(C(C)(C)C)nc2c(-c3ccc(Cl)cc3)cnn12`, which AC40 is on record?
A: 7.08 µM

Q: With `COc1ccc(C#Cc2ccc([C@@H]3[C@@H](CO)N4CCCCN(Cc5ccccc5F)C[C@@H]34)cc2)cc1` as the molecule, how does the AC40 read?
A: 14.3 µM

Q: How did the AC40 turn out when `CCN(CC)c1ccc(N=Cc2c(O)n(Cc3ccccc3)c(=O)[nH]c2=O)cc1` was run?
A: 11.3 µM

Q: For `CC(C)(c1ccccc1)c1ccc(OCC(O)CNC2CCN(Cc3ccccc3)CC2)cc1` (centres undefined), which AC40 is on record?
A: 11.8 µM

Q: For `COc1ccc(C)cc1NCc1cc(=O)oc2cc(-c3ccccc3)c(O)cc12`, which AC40 is on record?
A: 15.8 µM

Q: How did the AC40 turn out when `COc1ccc(NC(=O)COc2ccc(C(=O)NC3CCCc4ccccc43)cc2OC)cc1` (centres undefined) was run?
A: 6.54 µM

Q: For `CC1(C(=O)NS(=O)(=O)c2ccccc2Cl)CCN1C(=O)C1(c2ccccc2)CCCC1` (centres undefined), which AC40 is on record?
A: 19.3 µM

Q: Which AC40 does the source give for `O=C(Nc1nc(-c2ccc(-c3ccccc3)cc2)cs1)C1=COCCO1` here?
A: 6.8 µM

Q: For `Cc1ccc2oc(-c3ccc(NC(=O)c4ccc5c(c4)OCO5)cc3)nc2c1`, which AC40 is on record?
A: 4.81 µM

Q: `O=C(N/N=C/c1ccc(Cl)cc1Cl)Nc1ccccc1` was tested. Which AC40 did it give?
A: 7.74 µM

Q: With `CCOc1ccc(CN2C(=O)c3ccccc3C2=O)cc1C(=O)Nc1nnc(SCC)s1` as the molecule, how does the AC40 read?
A: 13.6 µM

Q: `CC(C)CC#Cc1ccc2c(c1)O[C@@H](CN(C)Cc1ccccc1)[C@H](C)CN([C@H](C)CO)S2(=O)=O` was tested. Which AC40 did it give?
A: 9.77 µM

Q: `Cc1ccc(C(C)C)c(OCCNCCc2ccccc2)c1` was tested. Which AC40 did it give?
A: 15 µM

Q: `COc1cccc(-c2sc3ccccc3c2-c2ccc(OCCN(C)C)cc2)c1` was tested. Which AC40 did it give?
A: 3.37 µM

Q: With `COc1ccc(C(=O)Nc2ccc3c(c2)C(=O)c2ccccc2C3=O)cc1OC` as the molecule, how does the AC40 read?
A: 24.1 µM

Q: How did the AC40 turn out when `C[C@H]1CN([C@@H](C)CO)S(=O)(=O)c2ccc(C#Cc3ccccc3)cc2O[C@@H]1CN(C)C(=O)CN(C)C` was run?
A: 28 µM

Q: Which AC40 does the source give for `Cc1nn(-c2ccccc2)c2c1C(O)CC(C)(C)C2` (centres undefined) here?
A: 3.51 µM

Q: `O=C(c1cccs1)c1coc2ccc(O)c(CN3CCOCC3)c12` was tested. Which AC40 did it give?
A: > 35 µM (inactive)
